Results: patent US9505745B2, “Enhancer of zeste homolog 2 inhibitors” (GlaxoSmithKline Intellectual Property (No.2) Limited, priority 2013, dated 2016)
Where a name gives a salt, the structure may show the parent alone.

Columns and labels:
[1] = target: T1, EZH2 within the PRC2 complex (Homo sapiens (Human), UniProt Q15910); experiment: EZH2 methyltransferase SPA, mononucleosome substrate (Assay Protocol 1); type: biochemical; conditions: HeLa mononucleosome substrate, 3H-SAM, ≦10 nM approaches limit of detection
T1 sequence (Q15910 whole entry): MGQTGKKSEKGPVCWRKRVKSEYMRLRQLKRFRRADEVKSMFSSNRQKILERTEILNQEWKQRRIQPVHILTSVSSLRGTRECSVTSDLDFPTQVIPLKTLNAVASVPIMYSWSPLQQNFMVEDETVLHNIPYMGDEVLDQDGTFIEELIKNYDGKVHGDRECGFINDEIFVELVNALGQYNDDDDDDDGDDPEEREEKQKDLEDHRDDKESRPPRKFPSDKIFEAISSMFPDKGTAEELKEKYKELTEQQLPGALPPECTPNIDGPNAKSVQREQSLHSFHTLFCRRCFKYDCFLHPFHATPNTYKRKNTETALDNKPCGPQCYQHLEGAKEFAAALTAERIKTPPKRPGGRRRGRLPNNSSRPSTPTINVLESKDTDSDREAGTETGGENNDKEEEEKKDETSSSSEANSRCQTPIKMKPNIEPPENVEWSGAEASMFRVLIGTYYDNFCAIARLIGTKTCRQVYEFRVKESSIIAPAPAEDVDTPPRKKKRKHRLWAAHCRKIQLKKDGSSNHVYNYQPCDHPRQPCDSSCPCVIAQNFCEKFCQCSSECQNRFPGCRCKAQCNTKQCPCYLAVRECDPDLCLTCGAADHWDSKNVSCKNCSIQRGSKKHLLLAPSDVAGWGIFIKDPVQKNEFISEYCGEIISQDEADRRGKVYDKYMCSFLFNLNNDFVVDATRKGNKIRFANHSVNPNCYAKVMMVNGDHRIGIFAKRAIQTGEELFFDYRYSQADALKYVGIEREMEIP
T1 sequence (O75530 whole entry partner): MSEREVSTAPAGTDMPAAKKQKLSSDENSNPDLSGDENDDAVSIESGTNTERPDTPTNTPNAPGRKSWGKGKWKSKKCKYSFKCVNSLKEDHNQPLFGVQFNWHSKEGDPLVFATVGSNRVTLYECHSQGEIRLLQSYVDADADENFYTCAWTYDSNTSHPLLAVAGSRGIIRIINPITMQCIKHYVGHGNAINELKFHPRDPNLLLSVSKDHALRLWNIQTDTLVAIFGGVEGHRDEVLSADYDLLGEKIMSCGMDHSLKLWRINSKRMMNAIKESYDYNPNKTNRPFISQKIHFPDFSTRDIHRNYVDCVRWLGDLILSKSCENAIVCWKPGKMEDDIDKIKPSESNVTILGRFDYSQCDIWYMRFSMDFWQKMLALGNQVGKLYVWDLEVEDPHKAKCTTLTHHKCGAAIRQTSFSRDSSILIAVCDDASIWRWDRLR
T1 sequence (Q15022 whole entry partner): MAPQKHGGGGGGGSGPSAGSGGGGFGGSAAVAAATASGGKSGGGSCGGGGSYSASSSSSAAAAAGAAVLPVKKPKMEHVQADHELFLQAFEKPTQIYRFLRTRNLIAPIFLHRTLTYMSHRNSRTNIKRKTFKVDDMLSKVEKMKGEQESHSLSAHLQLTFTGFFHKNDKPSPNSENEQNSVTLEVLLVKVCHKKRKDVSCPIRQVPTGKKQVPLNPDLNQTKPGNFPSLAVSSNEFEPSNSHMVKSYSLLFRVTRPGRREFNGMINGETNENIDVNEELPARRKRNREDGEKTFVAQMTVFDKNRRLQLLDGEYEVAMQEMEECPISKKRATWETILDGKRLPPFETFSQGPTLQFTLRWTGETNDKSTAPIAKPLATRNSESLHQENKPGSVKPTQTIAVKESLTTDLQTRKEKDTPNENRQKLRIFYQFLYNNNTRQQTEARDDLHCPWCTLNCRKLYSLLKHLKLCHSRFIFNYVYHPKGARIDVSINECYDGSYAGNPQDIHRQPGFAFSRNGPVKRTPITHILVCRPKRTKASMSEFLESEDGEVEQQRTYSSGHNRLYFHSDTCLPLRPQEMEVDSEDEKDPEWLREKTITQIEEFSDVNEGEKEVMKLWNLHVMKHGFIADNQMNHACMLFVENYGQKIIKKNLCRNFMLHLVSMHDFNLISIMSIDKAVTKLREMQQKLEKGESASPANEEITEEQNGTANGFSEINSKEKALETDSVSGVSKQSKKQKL
T1 sequence (Q09028 whole entry partner): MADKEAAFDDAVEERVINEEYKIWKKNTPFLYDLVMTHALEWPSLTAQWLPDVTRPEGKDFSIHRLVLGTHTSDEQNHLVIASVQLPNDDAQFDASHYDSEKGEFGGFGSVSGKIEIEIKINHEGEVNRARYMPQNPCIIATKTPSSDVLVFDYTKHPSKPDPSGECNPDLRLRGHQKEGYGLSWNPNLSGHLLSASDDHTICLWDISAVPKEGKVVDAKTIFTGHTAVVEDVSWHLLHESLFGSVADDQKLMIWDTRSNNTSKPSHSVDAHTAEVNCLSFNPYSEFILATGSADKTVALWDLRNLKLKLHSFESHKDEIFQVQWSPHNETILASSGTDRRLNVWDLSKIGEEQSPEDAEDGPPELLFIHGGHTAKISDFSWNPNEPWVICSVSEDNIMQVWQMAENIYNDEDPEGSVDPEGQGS
T1 sequence (Q6ZN18 whole entry partner): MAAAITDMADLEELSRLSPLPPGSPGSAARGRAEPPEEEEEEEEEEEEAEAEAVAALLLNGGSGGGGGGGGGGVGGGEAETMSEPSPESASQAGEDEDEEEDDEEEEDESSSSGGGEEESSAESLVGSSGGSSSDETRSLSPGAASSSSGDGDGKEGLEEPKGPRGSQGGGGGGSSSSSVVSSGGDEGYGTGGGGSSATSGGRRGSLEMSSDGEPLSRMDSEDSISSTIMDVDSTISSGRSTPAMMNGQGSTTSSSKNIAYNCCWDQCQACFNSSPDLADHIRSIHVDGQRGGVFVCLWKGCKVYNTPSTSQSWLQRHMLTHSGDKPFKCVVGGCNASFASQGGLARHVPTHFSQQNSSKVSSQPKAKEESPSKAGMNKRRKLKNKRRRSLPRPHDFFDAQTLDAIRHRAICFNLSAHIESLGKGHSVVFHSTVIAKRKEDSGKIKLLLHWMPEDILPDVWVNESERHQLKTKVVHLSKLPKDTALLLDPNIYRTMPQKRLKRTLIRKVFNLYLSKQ
Experimental: Compounds contained herein were evaluated for their ability to inhibit the methyltransferase activity of EZH2 within the PRC2 complex. Human PRC2 complex was prepared by co-expressing each of the 5 member proteins (FLAG-EZH2, EED, SUZ12, RbAp48, AEBP2) in Sf9 cells followed by co-purification. Enzyme activity was measured in a scintillation proximity assay (SPA) where a tritiated methyl group is transferred from 3H-SAM to a lysine residue on Histone H3 of a mononucleosome, purified from HeLa cells. Mononucleosomes were captured on SPA beads and the resulting signal is read on a ViewLux plate reader.
(§1) Part A. Compound Preparation
• 1. Prepare 10 mM stock of compounds from solid in 100% DMSO. • 2. Set up an 11-point serial dilution (1:3 dilution, top concentration 10 mM) in 100% DMSO for each test compound in a 384 well plate leaving columns 6 and 18 for DMSO controls. • 3. Dispense 100 nL of compound from the dilution plate into reaction plates (Grenier Bio-One, 384-well, Cat#784075). Part B. Reagent Preparation Prepare the following solutions: • 1. 50 mM Tris-HCl, pH 8: Per 1 L of base buffer, combine 1 M Tris-HCl, pH 8 (50 mL) and distilled water (950 mL). • 2. 1× Assay Buffer: Per 10 mL of 1× Assay Buffer, combine 50 mM Tris-HCl, pH 8 (9958 uL), 1 M MgCl2 (20 uL), 2 M DTT (20 uL), and 10% Tween-20 (2 uL) to provide a final concentration of 50 mM Tris-HCl, pH 8, 2 mM MgCl2, 4 mM DTT, 0.002% Tween-20. • 3. 2× Enzyme Solution: Per 10 mL of 2× Enzyme Solution, combine 1× Assay Buffer and PRC2 complex to provide a final enzyme concentration of 10 nM. • 4. SPA Bead Suspension: Per 1 mL of SPA Bead Suspension, combine PS-PEI coated LEADSeeker beads (40 mg) and H2O (1 mL) to provide a final concentration of 40 mg/mL. • 5. 2× Substrate Solution: Per 10 mL of 2× Substrate Solution, combine 1× Assay Buffer (9728.55 uL), 800 ug/mL mononucleosomes (125 uL), 1 mM cold SAM (4 uL), and 7.02 uM 3H-SAM (142.45 uL; 0.55 mCi/mL) to provide a final concentration of 5 ug/mL nucleosomes, 0.2 uM cold SAM, and 0.05 uM 3H-SAM. • 6. 2.67× Quench/Bead Mixture: Per 10 mL of 2.67× Quench/Bead Mixture, combine ddH2O (9358 uL), 10 mM cold SAM (267 uL), 40 mg/mL Bead Suspension (375 uL) to provide a final concentration of 100 uM cold SAM and 0.5 mg/mL SPA beads. Part C. Assay Reaction in 384-well Grenier Bio-One Plates Compound Addition • 1. Dispense 100 nL/well of 100× Compound to test wells (as noted above). • 2. Dispense 100 nL/well of 100% DMSO to columns 6 & 18 for high and low controls, respectively. Assay • 1. Dispense 5 uL/well of 1× Assay Buffer to column 18 (low control reactions). • 2. Dispense 5 uL/well of 2× Enzyme Solution to columns 1-17, 19-24. • 3. Spin assay plates for ˜1 min at 500 rpm. • 4. Stack the assay plates, covering the top plate. • 5. Incubate the compound/DMSO with the enzyme for 30 min at room temperature. • 6. Dispense 5 uL/well of 2× Substrate Solution to columns 1-24. • 7. Spin assay plates for ˜1 min at 500 rpm. • 8. Stack the assay plates, covering the top plate. • 9. Incubate the assay plates at room temperature for 1 hour. Quench/Bead Addition • 1. Dispense 5 uL/well of the 3× Quench/Bead Mixture to columns 1-24. • 2. Seal the top of each assay plate with adhesive TopSeal. • 3. Spin assay plates for ˜1 min at 500 rpm. • 4. Equilibrate the plates for >20 min. Read plates • 1. Read the assay plates on the Viewlux Plate Reader utilizing the 613 nm emission filter with a 300 s read time.
Reagent addition can be done manually or with automated liquid handler. • The final DMSO concentration in this assay is 1%. • The positive control is in column 6; negative control is in column 18. • Final starting concentration of compounds is 100 µM. Results
(§2) Percent inhibition was calculated relative to the DMSO control for each compound concentration and the resulting values were fit using standard IC50 fitting parameters within the ABASE data fitting software package.

[2] = target: T1, EZH2 within the PRC2 complex; experiment: EZH2 methyltransferase SPA, biotinylated histone H3K27 peptide substrate (Assay Protocol 2); type: biochemical; conditions: 3H-SAM, ≦10 nM approaches limit of detection
Experimental: Compounds contained herein were evaluated for their ability to inhibit the methyltransferase activity of EZH2 within the PRC2 complex. Human PRC2 complex was prepared by co-expressing each of the 5 member proteins (FLAG-EZH2, EED, SUZ12, RbAp48, AEBP2) in Sf9 cells followed by co-purification. Enzyme activity was measured in a scintillation proximity assay (SPA) where a tritiated methyl group is transferred from 3H-SAM to a lysine residue on a biotinylated, unmethylated peptide substrate derived from histone H3. The peptides were captured on streptavidin-coated SPA beads and the resulting signal was read on a ViewLux plate reader.
as §1
• 4. Prepare 10 mM stock of compounds from solid in 100% DMSO. • 5. Set up an 11-point serial dilution (1:4 dilution, top concentration 10 mM) in 100% DMSO for each test compound in a 384 well plate leaving columns 6 and 18 for DMSO controls. • 6. Dispense 10 nL of compound from the dilution plate into reaction plates (Corning, 384-well polystyrene NBS, Cat#3673). Part B. Reagent Preparation Prepare the following solutions: • 7. 1× Base Buffer, 50 mM Tris-HCl, pH 8, 2 mM MgCl2: Per 1 L of base buffer, combine 1 M Tris-HCl, pH 8 (50 mL), 1 M MgCl2 (2 mL), and distilled water (948 mL). • 8. 1× Assay Buffer: Per 10 mL of 1× Assay Buffer, combine 1× Base Buffer (9.96 mL), 1 M DTT (40 uL), and 10% Tween-20 (1 uL) to provide a final concentration of 50 mM Tris-HCl, pH 8, 2 mM MgCl2, 4 mM DTT, 0.001% Tween-20. • 9. 2× Enzyme Solution: Per 10 mL of 2× Enzyme Solution, combine 1× Assay Buffer (9.99 mL) and 3.24 uM EZH2 5 member complex (6.17 uL) to provide a final enzyme concentration of 1 nM. • 10. SPA Bead Solution: Per 1 mL of SPA Bead Solution, combine Streptavidin coated SPA beads (PerkinElmer, Cat#RPNQ0261, 40 mg) and 1× Assay Buffer (1 mL) to provide a working concentration of 40 mg/mL. • 11. 2× Substrate Solution: Per 10 mL of 2× Substrate Solution, combine 40 mg/mL SPA Bead Solution (375 uL), 1 mM biotinylated histone H3K27 peptide (200 uL), 12.5 uM 3H-SAM (240 uL; 1 mCi/mL), 1 mM cold SAM (57 uL), and 1× Assay Buffer (9.13 mL) to provide a final concentration of 0.75 mg/mL SPA Bead Solution, 10 uM biotinylated histone H3K27 peptide, 0.15 uM 3H-SAM (˜12 uCi/mL 3H-SAM), and 2.85 uM cold SAM. • 12. 2.67× Quench Solution: Per 10 mL of 2.67× Quench Solution, combine 1× Assay Buffer (9.73 mL) and 10 mM cold SAM (267 uL) to provide a final concentration of 100 uM cold SAM. Part C. Assay Reaction in 384-well Grenier Bio-One Plates Compound Addition • 3. Stamp 10 nL/well of 1000× Compound to test wells (as noted above). • 4. Stamp 10 nL/well of 100% DMSO to columns 6 & 18 (high and low controls, respectively). Assay • 10. Dispense 5 uL/well of 1× Assay Buffer to column 18 (low control reactions). • 11. Dispense 5 uL/well of 2× Substrate Solution to columns 1-24 (note: substrate solution should be mixed to ensure homogeneous bead suspension before dispensing into matrix reservoir). • 12. Dispense 5 uL/well of 2× Enzyme Solution to columns 1-17, 19-24. • 13. Incubate the reaction for 60 min at room temperature. Quench • 5. Dispense 6 uL/well of the 2.67× Quench Solution to columns 1-24. • 6. Seal assay plates and spin for ˜1 min at 500 rpm. • 7. Dark adapt plates in the ViewLux instrument for 15-60 min. Read plates • 2. Read the assay plates on the Viewlux Plate Reader utilizing the 613 nm emission filter or clear filter (300 s exposure). Reagent addition can be done manually or with automated liquid handler. Results
as §2

Structure (SMILES) | IC50 [1] [nM] | IC50 [2] [nM]
Cc1cc(C)c(CNC(=O)c2scc(OC(C)C)c2C)c(=O)[nH]1 [Example 1, N-((4,6-dimethyl-2-oxo-1,2-dihydropyridin-3-yl)methyl)-4-isopropoxy-3-methylthiophene-2-carboxamide] | 3160 | 25100
CCN(c1csc(C(=O)NCc2c(C)cc(C)[nH]c2=O)c1C)C1CCOCC1 [Example 2, N-((4,6-Dimethyl-2-oxo-1,2-dihydropyridin-3-yl)methyl)-4-(ethyl(tetrahydro-2H-pyran-4-yl)amino)-3-methylthiophene-2-carboxamide] | 63 | 200
CCN(c1c(Cl)sc(C(=O)NCc2c(C)cc(C)[nH]c2=O)c1C)C1CCOCC1 [Example 3, 5-Chloro-N-((4,6-dimethyl-2-oxo-1,2-dihydropyridin-3-yl)methyl)-4-(ethyl(tetrahydro-2H-pyran-4-yl)amino)-3-methylthiophene-2-carboxamide] | 100 | 200
CCN(c1csc(C(=O)NCc2c(C)cc(C)[nH]c2=O)c1C)[C@H]1CC[C@H](N(C)C)CC1 [Example 4, N-((4,6-dimethyl-2-oxo-1,2-dihydropyridin-3-yl)methyl)-4-(((trans)-4-(dimethylamino)cyclohexyl)(ethyl)amino)-3-methylthiophene-2-carboxamide] | 16 | 25
CCN(c1csc(C(=O)NCc2c(C)cc(C)[nH]c2=O)c1C)[C@H]1CC[C@@H](N(C)C)CC1 [Example 5, N-((4,6-dimethyl-2-oxo-1,2-dihydropyridin-3-yl)methyl)-4-(((cis)-4-(dimethylamino)cyclohexyl)(ethyl)amino)-3-methylthiophene-2-carboxamide] | 32 | 50
C/C=C(/CCCN1CCC(N(C)C)CC1)c1scc(C(=O)NCc2c(C)cc(C)[nH]c2=O)c1C [Example 74, (Z)—N-((4,6-Dimethyl-2-oxo-1,2-dihydropyridin-3-yl)methyl)-5-(6-(4-(dimethylamino)piperidin-1-yl)hex-2-en-3-yl)-4-methylthiophene-3-carboxamide formate] |  | 200
CCN(c1sc(-c2ccoc2)c(C(=O)NCc2c(C)cc(C)[nH]c2=O)c1C)[C@H]1CC[C@H](N(C)C)CC1 [Example 77, N-((4,6-dimethyl-2-oxo-1,2-dihydropyridin-3-yl)methyl)-5-(((trans)-4-(dimethylamino)cyclohexyl)(ethyl)amino)-2-(furan-3-yl)-4-methylthiophene-3-carboxamide] |  | 32

Other lines, results leading:

IC50 [1] [nM] | IC50 [2] [nM] | Structure (SMILES)
16 | 16 | CCN(c1scc(C(=O)NCc2c(C)cc(C)[nH]c2=O)c1C)C1CCOCC1 [Example 6, N-((4,6-dimethyl-2-oxo-1,2-dihydropyridin-3-yl)methyl)-5-(ethyl(tetrahydro-2H-pyran-4-yl)amino)-4-methylthiophene-3-carboxamide]
 | 25 | CCN(c1sc(-c2ccoc2)c(C(=O)NCc2c(C)cc(C)[nH]c2=O)c1C)C1CCOCC1 [Example 75, N-((4,6-dimethyl-2-oxo-1,2-dihydropyridin-3-yl)methyl)-5-(ethyl(tetrahydro-2H-pyran-4-yl)amino)-2-(furan-3-yl)-4-methylthiophene-3-carboxamide]
 | 32 | CCN(c1sc(-c2ccco2)c(C(=O)NCc2c(C)cc(C)[nH]c2=O)c1C)C1CCOCC1 [Example 76, N-((4,6-dimethyl-2-oxo-1,2-dihydropyridin-3-yl)methyl)-5-(ethyl(tetrahydro-2H-pyran-4-yl)amino)-2-(furan-2-yl)-4-methylthiophene-3-carboxamide]
 | 100 | CCN(c1sc(-c2cnn(C)c2)c(C(=O)NCc2c(C)cc(C)[nH]c2=O)c1C)C1CCOCC1 [Example 78, N-((4,6-dimethyl-2-oxo-1,2-dihydropyridin-3-yl)methyl)-5-(ethyl(tetrahydro-2H-pyran-4-yl)amino)-4-methyl-2-(1-methyl-1H-pyrazol-4-yl)thiophene-3-carboxamide]
